# Key:
# Adenosine A2 receptor = Adenosine A2 receptor (Rattus norvegicus, UniProt P29276+P30543)
# Rattus norvegicus [1] = experiment: Serum creatinine concentration measured after intraperitoneal administration of 1 mg/kg of compound to rats(vehicle 4.91+/-0.10); assay type: functional
# Rattus norvegicus [2] = experiment: Percent inhibition of Urea nitrogen by the compound given as ratio of UN value in treated to vehicle treated ones after intraperitoneal administration of 1 mg/kg of compound to rats(vehicle 154+/-7); assay type: functional; settings: ip
# Rattus norvegicus [3] = experiment: Percent inhibition of serum creatinine by the compound given as ratio of Cr value in treated to vehicle treated ones after intraperitoneal administration of 1 mg/kg of compound to rats(vehicle 4.91+/-0.10); assay type: functional; settings: ip
# Adenosine receptor A1 = target: T1, Adenosine receptor A1 (Cavia porcellus, UniProt P47745)
# T1 sequence (P47745 whole entry): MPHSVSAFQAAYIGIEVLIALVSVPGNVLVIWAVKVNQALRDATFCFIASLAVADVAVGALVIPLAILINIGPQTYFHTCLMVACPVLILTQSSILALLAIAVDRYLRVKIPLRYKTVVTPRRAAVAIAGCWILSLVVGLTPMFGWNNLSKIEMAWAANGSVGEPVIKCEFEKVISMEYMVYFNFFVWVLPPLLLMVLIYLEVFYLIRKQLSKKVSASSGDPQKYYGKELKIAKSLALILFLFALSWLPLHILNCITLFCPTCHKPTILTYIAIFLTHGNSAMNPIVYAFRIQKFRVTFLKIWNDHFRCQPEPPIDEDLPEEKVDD
# Description: Binding affinity against adenosine A1 receptor in guinea pig forebrain membranes using N6-[3H]cyclohexyladenosine as radioligand
# Rattus norvegicus [4] = experiment: Ratio of urinary excretion value (urinary volume) in treated rats to that in control rats, at a peroral dose of 6.25 mg/Kg; assay type: functional, Urine
# Rattus norvegicus [5] = experiment: Urea nitrogen concentration measured after intraperitoneal administration of 1 mg/kg of compound to rats(vehicle 154+/-7); assay type: functional
# Rattus norvegicus [6] = experiment: Ratio of urinary excretion value (Na+ concentration) in treated rats to that in control rats, at a peroral dose of 6.25 mg/Kg; assay type: functional, Urine
# Rattus norvegicus [7] = experiment: Ratio of sodium ion/potassium ion concentration in treated rats to that in control rats, at a peroral dose of 0.4 mg/Kg; assay type: functional
# Rattus norvegicus [8] = experiment: Effect on urinary excretion potassium and sodium after oral administration of 1.6 mg/kg to rats(potassium and sodium excretion in control rat is 0.174+/-0.013); assay type: functional, Urine
# Rattus norvegicus [9] = experiment: Percent inhibition of serum creatinine by the compound given as ratio of Cr value in treated to vehicle treated ones after intraperitoneal administration of 1 mg/kg of compound to rats(vehicle 4.82+/-0.24); assay type: functional; settings: ip
# Rattus norvegicus [10] = experiment: Ratio of urinary excretion value (Na+ concentration) in treated rats to that in control rats, at a peroral dose of 1.6 mg/Kg; assay type: functional, Urine
# Rattus norvegicus [11] = experiment: Urea nitrogen concentration measured after intraperitoneal administration of 1 mg/kg of compound to rats(vehicle 138.8+/-7.8); assay type: functional
# Rattus norvegicus [12] = experiment: Percent inhibition of serum creatinine by the compound given as ratio of Cr value in treated to vehicle treated ones after intraperitoneal administration of 1 mg/kg of compound to rats(vehicle 4.74+/-0.31); assay type: functional; settings: ip
# Rattus norvegicus [13] = experiment: Ratio of urinary excretion value (Na+ concentration) in treated rats to that in control rats, at a peroral dose of 0.4 mg/Kg; assay type: functional, Urine
# Rattus norvegicus [14] = experiment: Percent inhibition of Urea nitrogen by the compound given as ratio of UN value in treated to vehicle treated ones after intraperitoneal administration of 1 mg/kg of compound to rats(vehicle 156.2+/-6.1); assay type: functional; settings: ip
# Rattus norvegicus [15] = experiment: Ratio of sodium ion/potassium ion concentration in treated rats to that in control rats, at a peroral dose of 1.6 mg/Kg; assay type: functional
# Rattus norvegicus [16] = experiment: Oral diuretic activity was measured after oral administration of 1.6 mg/kg to rats(control volume is 0.86+/-0.09); assay type: functional, Urine
# Rattus norvegicus [17] = experiment: Oral diuretic activity was measured after oral administration of 0.4 mg/kg to rats(control volume is 1.15+/-0.17); assay type: functional, Urine
# Rattus norvegicus [18] = experiment: Urea nitrogen concentration measured after intraperitoneal administration of 1 mg/kg of compound to rats(vehicle 156.2+/-6.1); assay type: functional
# Rattus norvegicus [19] = experiment: Percent inhibition of Urea nitrogen by the compound given as ratio of UN value in treated to vehicle treated ones after intraperitoneal administration of 1 mg/kg of compound to rats(vehicle 138.8+/-7.8); assay type: functional; settings: ip
# Rattus norvegicus [20] = experiment: Ratio of urinary excretion value (urinary volume) in treated rats to that in control rats, at a peroral dose of 1.6 mg/Kg; assay type: functional, Urine
# Rattus norvegicus [21] = experiment: Serum creatinine concentration measured after intraperitoneal administration of 1 mg/kg of compound to rats(vehicle 4.74+/-0.31); assay type: functional
# Rattus norvegicus [22] = experiment: Serum creatinine concentration measured after intraperitoneal administration of 1 mg/kg of compound to rats(vehicle 4.82+/-0.24); assay type: functional
# Rattus norvegicus [23] = experiment: Effect on urinary excretion potassium and sodium after oral administration of 0.4 mg/kg to rats(potassium and sodium excretion in control rat is 0.180+/-0.017); assay type: functional, Urine
# Rattus norvegicus [24] = experiment: Ratio of urinary excretion value (urinary volume) in treated rats to that in control rats, at a peroral dose of 0.4 mg/Kg; assay type: functional, Urine
smiles,measurement,setting,value
CCCn1c(=O)[nH]c(=O)c2[nH]c(C3CCCC3)nc21,Ki,Adenosine A2 receptor,> 100000 nM
same,Cr,Rattus norvegicus [1],3.51 mg/dL
same,inhibition in vivo at 1 mg/kg,Rattus norvegicus [2],24%
same,inhibition in vivo at 1 mg/kg,Rattus norvegicus [3],28%
same,Ki,Adenosine receptor A1,1400 nM
same,T/C,Rattus norvegicus [4],1.76
same,UN,Rattus norvegicus [5],117 mg/dL
same,T/C,Rattus norvegicus [6],2.07
CCCCn1c(=O)c2nc(C3CCCC3)[nH]c2n(CCCC)c1=O,Na+/K+,Rattus norvegicus [7],1.23
same,Na,Rattus norvegicus [8],0.299 m equiv 6hr-1 100g-1
same,inhibition in vivo at 1 mg/kg,Rattus norvegicus [9],16%
same,Ki,Adenosine A2 receptor,170 nM
same,T/C,Rattus norvegicus [10],1.72
same,UN,Rattus norvegicus [11],75 mg/dL
same,inhibition in vivo at 1 mg/kg,Rattus norvegicus [12],42%
same,T/C,Rattus norvegicus [13],1.61
same,inhibition in vivo at 1 mg/kg,Rattus norvegicus [14],2%
same,Na+/K+,Rattus norvegicus [15],1.32
same,Urine volume,Rattus norvegicus [16],1.6 ml 6hr-1 100g-1
same,Urine volume,Rattus norvegicus [17],1.45 ml 6hr-1 100g-1
same,UN,Rattus norvegicus [18],153.6 mg/dL
same,inhibition in vivo at 1 mg/kg,Rattus norvegicus [19],56%
same,T/C,Rattus norvegicus [20],1.86
same,Cr,Rattus norvegicus [21],2.74 mg/dL
same,Ki,Adenosine receptor A1,4.2 nM
same,Cr,Rattus norvegicus [22],4.03 mg/dL
same,Na,Rattus norvegicus [23],0.309 m equiv 6hr-1 100g-1
same,T/C,Rattus norvegicus [24],1.26

# Source: ChEMBL document CHEMBL1125524, “Adenosine A1 antagonists. 2. Structure-activity relationships on diuretic activities and protective effects against acute renal failure” (J Med Chem, 1992)
